Laboratory results as given in patent publication US5244662A, “Medicinal extract from a mixture of Phellodendron and defatted seed of Croton, and method for it's manufacture” (Korea Green Cross Corporation, priority 1990, dated 1993).

Experiments:
[1] = tested on: osteoporosis; experiment: Clinical trial in osteoporosis; type: in vivo, patient
Text: (G-1) Clinical trial on a severe case whose vertebral density was just 0.332 g/cm^2 (29% of normal value), that is, corresponding to the 10th year from each menopause and the inability to walk over ten minutes. […]

[2] = treatment of osteoporosis; cited from earlier work
[3] = tested on: granuloma cells; experiment: Action on primary granuloma cells (progesterone production); type: cell-based, rats
Protocol: Current antitumour drugs affect normal cellular growth as well as growth of tumour cells, whereby very careful therapeutic application of the agents has been required. […] The action of the present extract on spleen cells and granuloma cells was investigated to evaluate the action on normal cellular growth.
The spleen cells originated from BALB/C mice and were cultured in RPMI media under the condition of 7% CO2 /37° C. The granuloma cells originated from the ovum of young rats aged 25 days and were cultured in DMEM/F 12(1:1) media containing fetal bovine serum under the same conditions.

[4] = tested on: PO-GRSI cells; experiment: Steroid hormone synthesis of PO-GRSI; type: cell-based
Protocol: Granuloma cells play an important role in producing ovum in mammalian animals, and particularly secrete progesterone to enhance the proliferation of ovum. Granuloma cells metastasized artificially with carcinogenic genes (SV-40 and Ha-Ras) have the ability to synthesize both progesterone, the cell's original function and protein, and the original function of the carcinogenic gene. For the test, PO-GRSI and PA-GS6 were cultured in DMEM/F12(1:1) haematologic culture media containing insulin(2 μg/ml), transferin (5 μg/ml), hydrocortisone(40 μg/ml) and fibronectin(5 μg/ml), and the progesterone was analyzed by radioimmunoassay ([…]).
The antitumour activities of the extract obtained in Example 1 against Granuloma cells were determined also by evaluating its action on the progesterone and 20 alpha --OH-- progesterone synthesis of the captioned two kinds of cells. In the meantime, the action of FORSKOLIN to enhance the two steroid hormone syntheses were also checked.

[5] = tested on: L1210 (ATCC CCL 219); set-up: species or system BDFI mice; conditions: mouse, in vivo
[6] = tested on: P388 (ATCC CCL 46); set-up: species or system BDFI mice; conditions: mouse, in vivo

CC#C[C@]1(O)CC[C@H]2[C@@H]3CCc4cc(O)ccc4[C@H]3CC[C@@]21C [Estrogen]
vertebral density maintained [1]: 0.341 g/cm^2

[F-].[Na+] [Sodium fluoride]
adverse effects of nausea and gastric irritation [2]: About 30%
rheumatic pain in leg joints [2]: 10%

C=C[C@@]1(C)CC(=O)[C@]2(O)[C@@]3(C)[C@@H](O)CCC(C)(C)[C@@H]3[C@H](O)[C@H](OC(C)=O)[C@@]2(C)O1 [forskolin]
progesterone secretion versus control ([3]; forskolin): eight times that of the control
progesterone ([3]; forskolin 10^-4 M, control 109.6): 829.0 ng/mL
increase of 20 alpha-OH-progesterone synthesis over the control [4]: 100 times
increase of progesterone synthesis over the control [4]: 60 times

CO[C@@]12[C@H](COC(N)=O)C3=C(C(=O)C(C)=C(N)C3=O)N1C[C@@H]1N[C@@H]12 [mitomycin C]
survival rate (%) [5]: 135%
survival time [5]: 21 days
survival rate (%) [6]: 130.4%
survival time [6]: 21.6 days
